Data taken from patent US20150141460A1, “Anti-inflammatory Compositions” (Cambridge Enterprise Limited, priority 2007, published 2015).

Key:
[1] = Pharmacokinetics following a single dose in rat (1 mg/kg iv, 3 mg/kg oral), LC-MS/MS, one-compartment model; type: in vivo
Method: Compounds were administered as a single dose (either 1 mg/kg bodyweight in 5% DMSO via the intravenous route or 3 mg/kg in 1% carboxymethylcellulose via the oral route) to three adult rats (using different rats for each compound and each route of administration).
Blood was then sampled at various time points (including just prior to dose administration) out to 24 hrs post dose, and the level of the various compounds was assessed using a validated LC-MS/MS assay. Briefly, 3-5 μl of the deproteinised sample was applied to a Waters Atlantis (C18 20×2.1 mm, 3 μm bead size) reverse phase chromatography column equilibrated in 0.1% formic acid in 95:5 water:actetonitrile. Over 3.5 minutes bound material was gradient eluted reaching 0.1% formic acid in 5:95 water:acetonitrile, followed by a step gradient back to 0.1% formic acid in 95:5 water:acetonitrile. The column eluent was then directed to an Applied Biosystems API 4000/3200 QTrap MS/MS mass spectrometer, with a TurboIonspray™ ion source operating in positive ion mode. The interface temperature was set at 650° C., with a 40 ms dwell time for each MRM transition, monitoring the following ions:
The internal standard in each determination was the related compound (S)-3-(2′,2′-dimethyl-propanoylamino)-caprolactam, which was spiked into the sample prior to deproteinization. The lower limit of quantitation (LLOQ) for this assay was 2.4 ng/ml for each compound except (I′), where it was 38.1 ng/ml.
Following LC-MS/MS analysis of each collected sample, the pharmacokinetic disposition of the compound was modelled using Kinetica software, a well known software package for such applications.
Compounds (VI) and (VII) were subject to pharmacokinetic analysis in rat using exactly the same protocols previous applied for compounds (I) through (V) in example 1.
We therefore subjected (VIII) to pharmacokinetic analysis in rat using exactly the same protocols previous applied for compounds (I′) through (VII) in examples 1 and 7.
The isolated (R)-enantiomer of (I) was therefore synthesised (exactly as described herein for the isolated (S)-enantiomer, but replacing the (S)-ornithine starting material with commercially available (R)-ornithine of high stereochemical purity), and the PK properties of this agent, in rat, was determined using the identical methodology described above (see Examples 1, 7 and 8).

[2] = system: RANTES induced migration of THP-1 cells; assay: ChemoTx transwell migration assay, RANTES induced migration of THP-1 cells; type: cell-based; conditions: Homo sapiens; THP-1 cell line; maximal dose of chemoattractant; read-out: ED50 RANTES induced migration
Method: In principle, this assay consists of two chambers separated by a porous membrane. The chemoattractant is placed in the lower compartment and the cells are placed in the upper compartment. After incubation for a period at 37° C. the cells move towards the chemoattractant, and the number of cells in the lower compartment is proportional to the chemoattractant activity (relative to a series of controls).
Next, the chemoattractant solution to be placed in the lower compartment is prepared. For example, MCP-1 is diluted in GBSS+BSA to give a final concentration of 25 ng/ml. This is divided into two pots, as for the cell suspension. To one pot, the test compound is added to the same final concentration as was added to the cell suspension, while to the other pot an equal volume of GBSS+BSA plus vehicle as appropriate (e.g., not more than 1% DMSO) is added. Alternatively, other chemokines may be used (SDF-1α at 7.5 ng/ml; RANTES at 50 ng/ml; IL-8 at 10 ng/ml using neutrophils as the target cell population). […]
The impact of the test substance is calculated by comparing the chemoattractant-induced migration which occurred in the presence or absence of various concentrations of the test substance. Typically, the inhibition of migration is expressed as a percentage of the total chemoattractant-induced migration which was blocked by the presence of the compound. […]

Structure (SMILES) | clearance, times lower than for the other lactam BSCIs [1] | plasma half-life, fold longer than the other compounds [1] [fold] | AUC(0-t) ([1]; blood, single oral dose 3 mg/kg in 1% CMC, Tables 7-9, read-out: Exposure (min · ng/ml), oral exposure AUC 0-t (converted)) [ng·h/mL] | oral exposure, fold higher than the next best compound (V) ([1]; oral 3 mg/kg) [fold] | EC50 [2] [nM] | minor t½β [1] [h]
CC(C)(C)C(=O)N[C@H]1CCCNC1=O [Compound (I′), (S)-3-(2′,2′-dimethylpropanoylamino)-tetrahydropyridin-2-one] | more than 10 times | 10 | 15600 | ~20 | 0.08 | –
O=C1NCCCC[C@@H]1NC(=O)C12CC3CC(CC(O)(C3)C1)C2 [Compound (V), 3-(3′-hydroxyadamantyl-1-carbonylamino)-caprolactam] | – | – | – | – | 0.25 | 1.83
